Data on 1 substance can be found in patent US11246856B2, “Methods of treating resistant cancers” (University of Maryland, Baltimore, priority 2017, dated 2022).

The subject of this assay is pre-formed spheroids. The experiment in a line: Treatment of pre-formed spheroids. Format: cell-based. Here is the method: Cancer cells were maintained under attached conditions in growth media containing DMEM (Invitrogen, Frederick, Md.) supplemented with 4.5 mg/ml D-glucose, […] L-glutamine, 100 mg/ml sodium pyruvate, and 5% fetal calf serum. For spheroid culture, monolayer cultures were dissociated with 0.25% trypsin and the cells were collected by centrifugation, and resuspended in spheroid media, consisting of DMEM/F12 (1:1) (DMT-10-090-CV, Mediatech INC, Manassa, Va.) containing 2% B27 serum-free supplement (17504-044, Invitrogen, Frederick, Md.) 20 ng/ml EGF (E4269, Sigma, St. Louis), 0.4% bovine serum albumin (B4287, Sigma) and […] insulin (19278 Sigma, St. Louis, Mo.) and plated at 40,000 cells per 9.6 cm^2 well in six well ultra-low attachment Costar cluster dishes (4371, Corning, Tewksbury, Mass.). Parallel cultures were plated in spheroid media on conventional plastic dishes for growth as monolayer cultures.
Identification of agents that suppress survival of PLX4032-resistant cells, or re-sensitize these cells to PLX4032, is an important goal. […] YAP1 interacts with TEAD transcription factors to drive gene expression (6,28) and a small molecular inhibitor called verteporfin has been reported to disrupt YAP1/TEAD interaction by binding to YAP1 and altering its structure (6,16). The impact of verteporfin treatment on spheroid formation and matrigel invasion in PLX4032 sensitive and resistant MCS cells was examined.

Take verteporfin: the “reduction of spheroid number/integrity” value is, setting by setting: (20 μM verteporfin, 3-day treatment, FIG. 4C legend) 30-50%; (spheroids formed for 8 d, 3D treatment, FIG. 4C) 30-50%. Moreover, for the setting “prolonged verteporfin treatment (not shown)”, the “pre-formed spheroids after prolonged treatment” value is listed as “complete destruction”.
